From patent publication US8404670B2 (Sunovion Pharmaceuticals Inc., priority 2009, dated 2013)

target: T1, human histamine H3 receptor (Homo sapiens, UniProt Q9Y5N1); test: H3 GTPγS assay (SPA method), histamine H3 in vitro assay; type: biochemical; conditions: GTPγ[35S] binding to membranes of cells expressing human H3; antagonist mode with R-γ-Me-Histamine at EC80 (30 nM); in one embodiment HCl salts tested; read-out: Potency (functional potency as indicated by IC50)
T1 construct: host or cells: cells expressing the human H3 receptor
T1 sequence (Q9Y5N1 whole entry): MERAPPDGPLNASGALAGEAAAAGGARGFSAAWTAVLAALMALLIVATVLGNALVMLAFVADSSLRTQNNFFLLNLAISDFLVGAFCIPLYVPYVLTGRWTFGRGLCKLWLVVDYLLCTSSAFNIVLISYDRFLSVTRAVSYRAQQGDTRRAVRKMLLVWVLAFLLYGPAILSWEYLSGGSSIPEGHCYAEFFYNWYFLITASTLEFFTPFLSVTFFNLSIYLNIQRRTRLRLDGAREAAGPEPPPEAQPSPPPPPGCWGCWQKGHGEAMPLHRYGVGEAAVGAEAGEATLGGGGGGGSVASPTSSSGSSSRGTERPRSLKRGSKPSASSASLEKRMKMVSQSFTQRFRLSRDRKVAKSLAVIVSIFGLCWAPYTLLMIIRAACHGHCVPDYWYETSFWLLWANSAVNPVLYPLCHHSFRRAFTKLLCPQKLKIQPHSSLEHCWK

Row | IC50 | Compound
1 | ≤ 10 nM | c1ccc2c(c1)CCN(c1ccc3c(c1)nc1n3CCN(C3CCC3)CC1)C2 [Compound 176, 3-cyclobutyl-8-(3,4-dihydroisoquinolin-2(1H)-yl)-2,3,4,5-tetrahydro-1H-benzo[4,5]imidazo[1,2-d][1,4]diazepine]
2 | ≤ 10 nM | FC1(F)CCN(Cc2ccc3c(c2)nc2n3CCN(C3CCC3)CC2)C1 [Compound 166, 3-cyclobutyl-8-((3,3-difluoropyrrolidin-1-yl)methyl)-2,3,4,5-tetrahydro-1H-benzo[4,5]imidazo[1,2-d][1,4]diazepine]
3 | ≤ 100 nM | c1nc2cc(-c3ccc4c(c3)nc3n4CCN(C4CCC4)CC3)ccc2[nH]1 [Compound 217, 8-(1H-benzo[d]imidazol-5-yl)-3-cyclobutyl-2,3,4,5-tetrahydro-1H-benzo[4,5]imidazo[1,2-d][1,4]diazepine]
4 | ≤ 100 nM | COc1cccc(-c2ccc3c(c2)nc2n3CCN(C3CCC3)CC2)n1 [Compound 137, 3-cyclobutyl-8-(6-methoxypyridin-2-yl)-2,3,4,5-tetrahydro-1H-benzo[4,5]imidazo[1,2-d][1,4]diazepine]
5 | ≤ 100 nM | O=C(C1CCC1)N1CCc2cc3c(cc2C1)nc1n3CCN(C2CCC2)CC1 [Compound 186, cyclobutyl(9-cyclobutyl-3,4,8,9,10,11-hexahydro-1H-[1,4]diazepino[7′,1′:2,3]imidazo[4,5-g]isoquinolin-2(7H)-yl)methanone]
6 | ≤ 100 nM | Cn1ncc2ccc(-c3ccc4c(c3)nc3n4CCN(C4CCC4)CC3)cc21 [Compound 205, 3-cyclobutyl-8-(1-methyl-1H-indazol-6-yl)-2,3,4,5-tetrahydro-1H-benzo[4,5]imidazo[1,2-d][1,4]diazepine]
7 | ≤ 10 nM | CC(=O)N1CCc2cc3c(cc2C1)nc1n3CCN(C2CCC2)CC1 [Compound 187, 1-(9-cyclobutyl-3,4,8,9,10,11-hexahydro-1H-[1,4]diazepino[7′,1′:2,3]imidazo[4,5-g]isoquinolin-2(7H)-yl)ethanone]
8 | ≤ 10 nM | Cc1cn2cc(-c3ccc4c(c3)nc3n4CCN(C4CCC4)CC3)ccc2n1 [Compound 195, 3-cyclobutyl-8-(2-methylimidazo[1,2-a]pyridin-6-yl)-2,3,4,5-tetrahydro-1H-benzo[4,5]imidazo[1,2-d][1,4]diazepine]
9 | ≤ 10 nM | c1cc2c(cc1C1CCCN(C3CCC3)C1)nc1n2CCN(C2CCC2)CC1 (stereo not shown) [Compound 128, 3-cyclobutyl-8-(1-cyclobutylpiperidin-3-yl)-2,3,4,5-tetrahydro-1H-benzo[4,5]imidazo[1,2-d][1,4]diazepine]
10 | ≤ 1000 nM | c1cc2c(nc3n2CCN(C2CCC2)CC3)c2c1CNCC2 [Compound 184, 10-cyclobutyl-2,3,4,8,9,10,11,12-octahydro-1H-[1,4]diazepino[1′,7′:1,2]imidazo[4,5-f]isoquinoline]
11 | ≤ 10 nM | c1ccc(N2CCN(c3ccc4c(c3)nc3n4CCN(C4CCC4)CC3)CC2)nc1 [Compound 230, 3-cyclobutyl-8-(4-(pyridin-2-yl)piperazin-1-yl)-2,3,4,5-tetrahydro-1H-benzo[4,5]imidazo[1,2-d][1,4]diazepine]
12 | ≤ 100 nM | N#Cc1ccc(-c2ccc3c(c2)nc2n3CCN(C3CCOCC3)CC2)cc1 [Compound 38]
13 | ≤ 10 nM | Cc1nc2ccc(F)cc2n1-c1ccc2c(c1)nc1n2CCN(C2CCC2)CC1 [Compound 208, 3-cyclobutyl-8-(6-fluoro-2-methyl-1H-benzo[d]imidazol-1-yl)-2,3,4,5-tetrahydro-1H-benzo[4,5]imidazo[1,2-d][1,4]diazepine]
14 | ≤ 100 nM | COc1ccc(-c2ccc3c(c2)nc2n3CCN(C3CCC3)CC2)nn1 [Compound 134, 3-cyclobutyl-8-(6-methoxypyridazin-3-yl)-2,3,4,5-tetrahydro-1H-benzo[4,5]imidazo[1,2-d][1,4]diazepine]
15 | ≥ 1000 nM | CN(C)C(=O)c1ccc2nc3n(c2c1)CCN(C1CCC1)CC3 [Compound 85]
16 | ≤ 100 nM | c1ccc(N2CCN(c3ccc4nc5n(c4c3)CCN(C3CCC3)CC5)CC2)nc1 [Compound 234, 3-cyclobutyl-9-(4-(pyridin-2-yl)piperazin-1-yl)-2,3,4,5-tetrahydro-1H-benzo[4,5]imidazo[1,2-d][1,4]diazepine]
17 | ≤ 10 nM | c1cc(-c2ccc3c(c2)nc2n3CCN(C3CCC3)CC2)nc(N2CCCC2)n1 [Compound 131, 3-cyclobutyl-8-(2-(pyrrolidin-1-yl)pyrimidin-4-yl)-2,3,4,5-tetrahydro-1H-benzo[4,5]imidazo[1,2-d][1,4]diazepine]
18 | ≤ 1000 nM | CC(=O)N1CCc2c(ccc3c2nc2n3CCN(C3CCC3)CC2)C1 [Compound 188, 1-(10-cyclobutyl-9,10,11,12-tetrahydro-1H-[1,4]diazepino[1′,7′:1,2]imidazo[4,5-f]isoquinolin-3(2H,4H,8H)-yl)ethanone]
19 | ≤ 100 nM | O=C(NCc1ccc2c(c1)nc1n2CCN(C2CCC2)CC1)OCc1ccccc1 [Compound 141, benzyl((3-cyclobutyl-2,3,4,5-tetrahydro-1H-benzo[4,5]imidazo[1,2-d][1,4]diazepin-8-yl)methyl)carbamate]
20 | ≤ 100 nM | FC1CCN(c2ccc3c(c2)nc2n3CCN(C3CCC3)CC2)C1 (stereo not shown) [Compound 181, 3-cyclobutyl-8-(3-fluoropyrrolidin-1-yl)-2,3,4,5-tetrahydro-1H-benzo[4,5]imidazo[1,2-d][1,4]diazepine]
21 | ≤ 100 nM | COc1ccnc(OCc2ccc3c(c2)nc2n3CCN(C3CCC3)CC2)n1 [Compound 107]
22 | ≤ 10 nM | O=C(C1CCC1)N1CCCC(c2ccc3c(c2)nc2n3CCN(C3CCC3)CC2)C1 (stereo not shown) [Compound 174]

Row | IC50 | Compound
23 | ≤ 1000 nM | COc1ccnc(OCc2ccc3nc4n(c3c2)CCN(C2CCC2)CC4)n1 [Compound 111]
24 | ≤ 100 nM | Cc1nncn1-c1ccc2c(c1)nc1n2CCN(C2CCC2)CC1 [Compound 157, 3-cyclobutyl-8-(3-methyl-4H-1,2,4-triazol-4-yl)-2,3,4,5-tetrahydro-1H-benzo[4,5]imidazo[1,2-d][1,4]diazepine]
25 | ≤ 10 nM | Cc1nc2ccccc2n1-c1ccc2c(c1)nc1n2CCN(C2CCC2)CC1 [Compound 207, 3-cyclobutyl-8-(2-methyl-1H-benzo[d]imidazol-1-yl)-2,3,4,5-tetrahydro-1H-benzo[4,5]imidazo[1,2-d][1,4]diazepine]
26 | ≤ 10 nM | CN(C)Cc1ccc2nc3n(c2c1)CCN(C1CCC1)CC3 [Compound 87]
27 | ≤ 100 nM | O=C(c1ccc2c(c1)nc1n2CCN(C2CCC2)CC1)N1CCCC1 [Compound 60]
28 | ≤ 100 nM | O=C(c1cnccn1)N1CCCC(c2ccc3c(c2)nc2n3CCN(C3CCC3)CC2)C1 (stereo not shown) [Compound 173, (3-(3-cyclobutyl-2,3,4,5-tetrahydro-1H-benzo[4,5]imidazo[1,2-d][1,4]diazepin-8-yl)piperidin-1-yl)(pyrazin-2-yl)methanone]
29 | ≤ 100 nM | c1ccc(-c2ccc3c(c2)nc2n3CCN(C3CCC3)CC2)nc1 [Compound 114, 3-cyclobutyl-9-(pyridin-2-yl)-2,3,4,5-tetrahydro-1H-[1,4]diazepino[1,7-a]benzimidazole]
30 | ≤ 10 nM | c1cc2c(cc1N1CCCCC1)nc1n2CCN(C2CCC2)CC1 [Compound 175, 3-cyclobutyl-8-(piperidin-1-yl)-2,3,4,5-tetrahydro-1H-benzo[4,5]imidazo[1,2-d][1,4]diazepine]
31 | ≤ 10 nM | c1cc2ncc(-c3ccc4c(c3)nc3n4CCN(C4CCC4)CC3)cc2o1 [Compound 201, 6-(3-cyclobutyl-2,3,4,5-tetrahydro-1H-benzo[4,5]imidazo[1,2-d][1,4]diazepin-8-yl)furo[3,2-b]pyridine]
32 | ≤ 10 nM | c1ccc2c(c1)CCN(Cc1ccc3c(c1)nc1n3CCN(C3CCC3)CC1)C2 [Compound 163, 3-cyclobutyl-8-((3,4-dihydroisoquinolin-2(1H)-yl)methyl)-2,3,4,5-tetrahydro-1H-benzo[4,5]imidazo[1,2-d][1,4]diazepine]
33 | ≤ 1000 nM | CN1CCN(C(=O)c2ccc3c(c2)nc2n3CCN(C3CCC3)CC2)CC1 [Compound 58]
34 | ≤ 1000 nM | c1cc2cc(-c3ccc4nc5n(c4c3)CCN(C3CCC3)CC5)ccc2[nH]1 [Compound 43]
35 | ≤ 10 nM | c1cc2c(cc1-c1ccc3nncn3c1)nc1n2CCN(C2CCC2)CC1 [Compound 204, 8-([1,2,4]triazolo[4,3-a]pyridin-6-yl)-3-cyclobutyl-2,3,4,5-tetrahydro-1H-benzo[4,5]imidazo[1,2-d][1,4]diazepine]
36 | ≤ 100 nM | c1cnn(-c2ccc3c(c2)nc2n3CCN(C3CCC3)CC2)n1 [Compound 151, 3-cyclobutyl-8-(2H-1,2,3-triazol-2-yl)-2,3,4,5-tetrahydro-1H-benzo[4,5]imidazo[1,2-d][1,4]diazepine]
37 | ≤ 10 nM | N#Cc1ccc(C(=O)N2CCc3cc4c(cc3C2)nc2n4CCN(C3CCC3)CC2)cc1 [Compound 185, 4-(9-cyclobutyl-2,3,4,7,8,9,10,11-octahydro-1H-[1,4]diazepino[7′,1′:2,3]imidazo[4,5-g]isoquinoline-2-carbonyl)benzonitrile]
38 | ≤ 100 nM | c1cnnc(-c2ccc3c(c2)nc2n3CCN(C3CCC3)CC2)c1 [Compound 125, 3-cyclobutyl-8-(pyridazin-3-yl)-2,3,4,5-tetrahydro-1H-benzo[4,5]imidazo[1,2-d][1,4]diazepine]
39 | ≤ 100 nM | Cc1nnnn1-c1ccc2c(c1)nc1n2CCN(C2CCC2)CC1 [Compound 156, 3-cyclobutyl-8-(5-methyl-1H-tetrazol-1-yl)-2,3,4,5-tetrahydro-1H-benzo[4,5]imidazo[1,2-d][1,4]diazepine]
40 | ≤ 1000 nM | c1coc(-c2cnc3c(c2)nc2n3CCN(C3CCC3)CC2)c1 [Compound 238]
41 | ≤ 100 nM | c1cnc2c(c1)ccn2-c1ccc2c(c1)nc1n2CCN(C2CCC2)CC1 [Compound 70, 3-cyclobutyl-9-(1H-pyrrolo[2,3-b]pyridin-1-yl)-2,3,4,5-tetrahydro-1H-[1,4]diazepino[1,7-a]benzimidazole]
42 | ≤ 1000 nM | N#Cc1ccc(OCc2ccc3nc4n(c3c2)CCN(C2CCC2)CC4)nc1 [Compound 112, 6-((3-cyclobutyl-2,3,4,5-tetrahydro-1H-[1,4]diazepino[1,7-a]benzimidazol-8-yl)methoxy)nicotino-nitrile]
43 | ≤ 100 nM | c1cc2cc(-c3ccc4c(c3)nc3n4CCN(C4CCC4)CC3)ccc2[nH]1 [Compound 4]
